Earlier results, collected in US9289396B2, “Collagen-based implants for sustained delivery of drugs” (Euclid Systems Corporation, priority 2010, dated 2016).

Key:
[1] = in phosphate buffer

| Approx. Solubility in water [µg/mL] | aqueous solubility [1] | Compound |
| --- | --- | --- |
| 0.5 |  | C[C@H]1C[C@H]2[C@@H]3CCC4=CC(=O)C=C[C@]4(C)[C@@]3(F)[C@@H](O)C[C@]2(C)[C@@]1(O)C(=O)CO [betamethasone] |
| 20 |  | CCNC(=O)CCC/C=C\C[C@@H]1[C@@H](/C=C/[C@@H](O)CCc2ccccc2)[C@H](O)C[C@@H]1O [bimatoprost] |
| 58 |  | CNCC(O)c1ccc(OC(=O)C(C)(C)C)c(OC(=O)C(C)(C)C)c1 (stereo not shown) [dipivefrin] |
| 8 |  | CN1CCC(=C2c3ccccc3CC(=O)c3sccc32)CC1 [ketotifen] |
|  | about 50 μg/mL | CC(C)OC(=O)CCC/C=C\C[C@@H]1[C@@H](CC[C@@H](O)CCc2ccccc2)[C@H](O)C[C@@H]1O [latanoprost, 13,14-dihydro-17-phenyl-18,19,20-trinor-prostaglandin F2a-1-isopropyl ester] |
| 7 |  | CCOC(=O)O[C@]1(C(=O)OCCl)CC[C@H]2[C@@H]3CCC4=CC(=O)C=C[C@]4(C)[C@H]3[C@@H](O)C[C@@]21C [loteprednol etabonate] |
| 20 |  | NC(=O)Cc1cccc(C(=O)c2ccccc2)c1N [nepafenac] |
| 40 |  | CC(C(=O)O)c1ccc(C(=O)c2cccs2)cc1 (stereo not shown) [suprofen] |
| 8 |  | CC(C)OC(=O)CCC/C=C\C[C@@H]1[C@@H](/C=C/[C@@H](O)COc2cccc(C(F)(F)F)c2)[C@H](O)C[C@@H]1O [travoprost] |

| Compound | Approx. Solubility in water [µg/mL] | aqueous solubility [1] |
| --- | --- | --- |
| CN(CCCCCCCCCCN(C)C(=O)Oc1cccc([N+](C)(C)C)c1)C(=O)Oc1cccc([N+](C)(C)C)c1 [demecarium] | 0.1 |  |
